Patent US20100056596A1, “RESISTANCE-REPELLENT RETROVIRAL PROTEASE INHIBITORS” (Sequoia Pharmaceuticals, priority 2004, published 2010)

Tests used:
HIV-1 isolates, Mutant 8 = experiment: In vitro drug sensitivity of HIV-1 laboratory isolates, Mutant 8; format: cell-based; conditions: Human immunodeficiency virus 1, read-out: IC50 Mutant 8
Method: (§1) In Vitro Drug Sensitivity of HIV-1 Laboratory Isolates to PIs
(§2) The sensitivities of HIV-1 isolates against compounds of the invention were determined as previously described with minor modifications (Shiraska et al., Proc. Natl. Acad. Sci. USA, 92, 2398-2402 (1995)).

HIV-1 isolates, Mutant 9 = experiment: In vitro drug sensitivity of HIV-1 laboratory isolates, Mutant 9; format: cell-based; conditions: Human immunodeficiency virus 1, read-out: IC50 Mutant 9
Method: as §1, §2

HIV-1 isolates, WT = experiment: In vitro drug sensitivity of HIV-1 laboratory isolates, WT; format: cell-based; conditions: Human immunodeficiency virus 1; HIV-1 isolate WT
Method: as §1, §2

HIV-1 protease Mutant 8 = HIV-1 protease Mutant 8 (Human immunodeficiency virus type 1, UniProt P04585); experiment: Ki against HIV-1 protease Mutant 8; format: biochemical; conditions: HIV-1 protease Mutant 8
HIV-1 protease Mutant 9 = HIV-1 protease Mutant 9 (Human immunodeficiency virus type 1, UniProt P04585); experiment: Ki against HIV-1 protease Mutant 9; format: biochemical; conditions: HIV-1 protease Mutant 9
wild type HIV-1 protease = molecular target: T1, wild type HIV-1 protease (Human immunodeficiency virus type 1 group M subtype B, UniProt P04585); experiment: Ki against wild type (WT) HIV-1 protease; format: biochemical; conditions: wild type HIV-1 protease
T1 construct: over 45 of the 99 amino acids of the HIV protease monomer

| Structure (SMILES) | IC50 (HIV-1 isolates, Mutant 8) | IC50 (HIV-1 isolates, Mutant 9) | IC50 (HIV-1 isolates, WT) | Ki (HIV-1 protease Mutant 8) | Ki (HIV-1 protease Mutant 9) | Ki (wild type HIV-1 protease) |
| --- | --- | --- | --- | --- | --- | --- |
| CC(C)CN(CC(O)C(Cc1ccccc1)NC(=O)OC1COC2OCCC12)S(=O)(=O)c1ccc2onc(COC(=O)C(C)(C)C)c2c1 (stereo not drawn) [Compound 218] | 18 nM | 80 nM | 11 nM | < 0.3 nM | 2 nM | < 0.1 nM |
| COCCNCc1noc2ccc(S(=O)(=O)N(CC(C)C)CC(O)C(Cc3ccccc3)NC(=O)OC3COC4OCCC34)cc12 (stereo not drawn) [Compound 219] | 9 nM | 40 nM | 4 nM | < 0.3 nM | 0.37 nM | < 0.1 nM |
| CC(C)CN(CC(O)C(Cc1ccccc1)NC(=O)OC1COC2OCCC12)S(=O)(=O)c1ccc2onc(CNC(=O)C(C)C)c2c1 (stereo not drawn) [Compound 220] | 12 nM | 60 nM | 7 nM | < 0.3 nM | 0.14 nM | < 0.1 nM |
| CC(C)CN(CC(O)C(Cc1ccccc1)NC(=O)OC1COC2OCCC12)S(=O)(=O)c1ccc2onc(CNC(=O)c3ccccc3)c2c1 (stereo not drawn) [Compound 221] | 14 nM | 16 nM | 7 nM | < 0.3 nM | < 0.1 nM | < 0.1 nM |
| CCCOC(=O)NCc1noc2ccc(S(=O)(=O)N(CC(C)C)CC(O)C(Cc3ccccc3)NC(=O)OC3COC4OCCC34)cc12 (stereo not drawn) [Compound 222] | 12 nM | 45 nM | 3 nM | < 0.3 nM | 0.19 nM | < 0.1 nM |
| CCS(=O)(=O)NCc1noc2ccc(S(=O)(=O)N(CC(C)C)CC(O)C(Cc3ccccc3)NC(=O)OC3COC4OCCC34)cc12 (stereo not drawn) [Compound 223] | 11 nM | 60 nM | 9 nM | < 0.3 nM | 0.26 nM | < 0.1 nM |
| CC(C)CN(CC(O)C(Cc1ccccc1)NC(=O)OC1COC2OCCC12)S(=O)(=O)c1ccc2onc(CNCCc3ccccn3)c2c1 (stereo not drawn) [Compound 224] | 30 nM | 100 nM | 15 nM | < 0.3 nM | 0.22 nM | < 0.1 nM |
| CCOC(=O)N(CCOC)Cc1noc2ccc(S(=O)(=O)N(CC(C)C)CC(O)C(Cc3ccccc3)NC(=O)OC3COC4OCCC34)cc12 (stereo not drawn) [Compound 225] | 27 nM | 80 nM | 3.6 nM | < 0.3 nM | 0.44 nM | < 0.1 nM |
| CCSCCNCc1noc2ccc(S(=O)(=O)N(CC(C)C)CC(O)C(Cc3ccccc3)NC(=O)OC3COC4OCCC34)cc12 (stereo not drawn) [Compound 226] | 16 nM | 38 nM | 5.5 nM | < 0.3 nM | < 0.1 nM | < 0.1 nM |
| CCS(=O)(=O)N(CCOC)Cc1noc2ccc(S(=O)(=O)N(CC(C)C)CC(O)C(Cc3ccccc3)NC(=O)OC3COC4OCCC34)cc12 (stereo not drawn) [Compound 227] | 27 nM | 80 nM | 3.6 nM | 0.41 nM | 2.6 nM | < 0.1 nM |
| CC(C)CN(CC(O)C(Cc1ccccc1)NC(=O)OC1COC2OCCC12)S(=O)(=O)c1ccc2onc(CNCC(F)(F)C(F)(F)F)c2c1 (stereo not drawn) [Compound 228] | 9.5 nM | 26 nM | 4.5 nM | < 0.3 nM | 0.2 nM | 0.12 nM |
| CC(C)CN(CC(O)C(Cc1ccccc1)NC(=O)OC1COC2OCCC12)S(=O)(=O)c1ccc2onc(CNCC(F)(F)F)c2c1 (stereo not drawn) [Compound 229] | 3.1 nM | 21 nM | 2.2 nM | < 0.3 nM | 0.46 nM | < 0.1 nM |
| CC(C)CN(CC(O)C(Cc1ccccc1)NC(=O)OC1COC2OCCC12)S(=O)(=O)c1ccc2onc(CNCCOc3ccccc3)c2c1 (stereo not drawn) [Compound 230] | 20 nM | 57 nM | 4.8 nM | < 0.3 nM | 0.14 nM | < 0.1 nM |
| CCCCNCc1noc2ccc(S(=O)(=O)N(CC(C)C)CC(O)C(Cc3ccccc3)NC(=O)OC3COC4OCCC34)cc12 (stereo not drawn) [Compound 231] | 23 nM | 60 nM | 4.3 nM | < 0.3 nM | 0.29 nM | < 0.1 nM |
| CC(C)CN(CC(O)C(Cc1ccccc1)NC(=O)OC1COC2OCCC12)S(=O)(=O)c1ccc2onc(CNCc3ccccc3)c2c1 (stereo not drawn) [Compound 232] | 55 nM | 80 nM | 7 nM | < 0.3 nM | 0.11 nM | < 0.1 nM |
| CC(C)CN(CC(O)C(Cc1ccccc1)NC(=O)OC1COC2OCCC12)S(=O)(=O)c1ccc2onc(CSCC(F)(F)F)c2c1 (stereo not drawn) [Compound 233] | 36 nM | > 400 nM | 4 nM | < 0.3 nM | 3.4 nM | < 0.1 nM |
| CC(C)CN(CC(O)C(Cc1ccccc1)NC(=O)OC1COC2OCCC12)S(=O)(=O)c1ccc2onc(CNC(=O)C(F)(F)F)c2c1 (stereo not drawn) [Compound 234] | 23 nM | 85 nM | 16 nM | < 0.3 nM | 0.36 nM | < 0.1 nM |
| CC(C)CN(CC(O)C(Cc1ccccc1)NC(=O)OC1COC2OCCC12)S(=O)(=O)c1ccc2onc(CNC3CCCC3)c2c1 (stereo not drawn) [Compound 235] | 15 nM | 120 nM | 4.2 nM | < 0.3 nM | 0.43 nM | < 0.1 nM |
| CC(C)CN(CC(O)C(Cc1ccccc1)NC(=O)OC1COC2OCCC12)S(=O)(=O)c1ccc2onc(CNCCNC(=O)OC(C)(C)C)c2c1 (stereo not drawn) [Compound 236] | 18 nM | 160 nM | 6 nM | < 0.3 nM | 0.34 nM | < 0.1 nM |
| CC(C)CN(CC(O)C(Cc1ccccc1)NC(=O)OC1COC2OCCC12)S(=O)(=O)c1ccc2onc(CNCCCN3CCCC3=O)c2c1 (stereo not drawn) [Compound 237] | 41 nM | 85 nM | 31 nM | < 0.3 nM | 0.27 nM | < 0.1 nM |
| CC(C)CN(CC(O)C(Cc1ccccc1)NC(=O)OC1COC2OCCC12)S(=O)(=O)c1ccc2onc(CNCC3CCCCC3)c2c1 (stereo not drawn) [Compound 238] | 35 nM | 55 nM | 7.5 nM | < 0.3 nM | < 0.1 nM | < 0.1 nM |
| CC(C)CN(CC(O)C(Cc1ccccc1)NC(=O)OC1COC2OCCC12)S(=O)(=O)c1ccc2onc(CN3CCOCC3)c2c1 (stereo not drawn) [Compound 239] | 25 nM | > 400 nM | 3 nM | < 0.3 nM | 3.7 nM | < 0.1 nM |
| CC(C)CN(CC(O)C(Cc1ccccc1)NC(=O)OC1COC2OCCC12)S(=O)(=O)c1ccc2onc(CNC(=O)c3ccco3)c2c1 (stereo not drawn) [Compound 240] | 11 nM | 20 nM | 6.5 nM | < 0.3 nM | 0.26 nM | < 0.1 nM |
| CC(C)CN(CC(O)C(Cc1ccccc1)NC(=O)OC1COC2OCCC12)S(=O)(=O)c1ccc2onc(CNCc3ccccn3)c2c1 (stereo not drawn) [Compound 241] | 17 nM | 27 nM | 8 nM | < 0.3 nM | 0.16 nM | 0.1 nM |
| Cc1nc(CNCc2noc3ccc(S(=O)(=O)N(CC(C)C)CC(O)C(Cc4ccccc4)NC(=O)OC4COC5OCCC45)cc23)cs1 (stereo not drawn) [Compound 242] | 15 nM | 27 nM | 7 nM | < 0.3 nM | 0.22 nM | < 0.1 nM |
